Type in all cases: in vivo
Assay [1] has as its system Echinochloa crus-galli (ECHCG). Description: Example B pre-emergence herbicidal test, ECHCG. To be noted: Echinochloa crus-galli, 312 h, rate 250 g/ha, evaluated after 13 days, 100=total damage to plant, 0=no damage to plant. How it is done: (§1) Seeds of a variety of test species were sown in standard soil in pots. After cultivation for one day (pre-emergence) or after 8 days cultivation (post-emergence) under controlled conditions in a glasshouse (at 24/16° C., day/night; 14 hours light; 65% humidity), the plants were sprayed with an aqueous spray solution derived from the formulation of the technical active ingredient in acetone/water (50:50) solution containing 0.5% Tween 20 (polyoxyethelyene sorbitan monolaurate, CAS RN 9005-64-5). The test plants were then grown in a glasshouse under controlled conditions in a glasshouse (at 24/16° C., day/night; 14 hours light; 65% humidity) and watered twice daily. After 13 days for pre and post-emergence, the test was evaluated (100=total damage to plant; 0=no damage to plant). Lolium perenne (LOLPE), Alopecurus myosuroides (ALOMY), Echinochloa crus-galli (ECHCG), Avena fatua (AVEFA) Pre-Emergence Activity

For assay [2], the system named is Lolium perenne (LOLPE). Description: Example B pre-emergence herbicidal test, LOLPE. To be noted: Lolium perenne, 312 h, rate 250 g/ha, evaluated after 13 days, 100=total damage to plant, 0=no damage to plant. How it is done: as §1
In assay [3] the test system is Alopecurus myosuroides (ALOMY). Briefly: Example B pre-emergence herbicidal test, ALOMY. The settings on record: Alopecurus myosuroides, 312 h, rate 250 g/ha, evaluated after 13 days, 100=total damage to plant, 0=no damage to plant. As for the experimental part:
as §1

In assay [4] the test system is Avena fatua (AVEFA). Briefly: Example B pre-emergence herbicidal test, AVEFA. To be noted: Avena fatua, 312 h, rate 250 g/ha, evaluated after 13 days, 100=total damage to plant, 0=no damage to plant. As for the experimental part:
as §1

Assay [5] deals with Alopecurus myosuroides (ALOMY). Briefly: Example B post-emergence herbicidal test, ALOMY. To be noted: Alopecurus myosuroides, 312 h, rate 250 g/ha, evaluated after 13 days, scale 0-100, read-out: Post-emergence activity ALOMY (100=total damage to plant; 0=no damage to plant). How it is done: as §1, with “Post-Emergence” for “Pre-Emergence”
Assay [6] relates to Avena fatua (AVEFA). Briefly: Example B post-emergence herbicidal test, AVEFA. The settings on record: Avena fatua, 312 h, rate 250 g/ha, evaluated after 13 days, scale 0-100, read-out: Post-emergence activity AVEFA (100=total damage to plant; 0=no damage to plant). As for the experimental part:
as §1, with “Post-Emergence” for “Pre-Emergence”

For assay [7], the system named is Echinochloa crus-galli (ECHCG). Briefly: Example B post-emergence herbicidal test, ECHCG. The settings on record: Echinochloa crus-galli, 312 h, rate 250 g/ha, evaluated after 13 days, scale 0-100, read-out: Post-emergence activity ECHCG (100=total damage to plant; 0=no damage to plant). As for the experimental part:
as §1, with “Post-Emergence” for “Pre-Emergence”

Assay [8] relates to Lolium perenne (LOLPE). Description: Example B post-emergence herbicidal test, LOLPE. To be noted: Lolium perenne, 312 h, rate 250 g/ha, evaluated after 13 days, scale 0-100, read-out: Post-emergence activity LOLPE (100=total damage to plant; 0=no damage to plant). How it is done:
as §1, with “Post-Emergence” for “Pre-Emergence”

Take `Cc1cc(C)c(C2C(=O)CC(CC3CCN(C(=O)C4CC4)C3)C2=O)c(C)c1` (stereo not drawn) [Compound T141]: the pest or weed control at 250 g/ha in assay [1] came to 80%; in assay [2] it was 80%; in assay [3], 80%; in assay [4], 80%; in assay [5] it was 80%; in assay [6], 90%. For the same compound, the values for the pest or weed control at 250 g/ha in assay [7] and in assay [8] were 60% and 70%, respectively.

For the compound `Cc1cc(C)c(C2C(=O)CC(CC3CCCCN3S(C)(=O)=O)C2=O)c(C)c1` (stereo not drawn) [Compound T51], the pest or weed control at 250 g/ha in assay [1] stood at 80%; in assay [2], 100%; in assay [3], 80%; in assay [4], 90%; in assay [5], 70%; in assay [6] it was 80%. Further, the pest or weed control at 250 g/ha in assay [7] worked out at 70%; in assay [8], 60%.

For `Cc1cc(-c2ccc(F)cc2)cc(C)c1C1C(=O)CC(CC2CCOCC2)C1=O` (stereo not drawn) [Compound T63], the pest or weed control at 250 g/ha in assay [1] came to 100%; in assay [2], 100%; in assay [3] it was 70%; in assay [4] it was 90%; in assay [5], 90%; in assay [6], 100%. The pest or weed control at 250 g/ha in assay [7] and in assay [8] was 90% throughout.

On to `Cc1cc(C)c(C2=C(OC(=O)OC(C)(C)C)CC(CC3CCN(C(=O)OC(C)(C)C)CC3)C2=O)c(C)c1` (stereo not drawn) [Compound P54], for which the pest or weed control at 250 g/ha in assay [1] was found to be 100%; in assay [2] it was 100%; in assay [3], 80%; in assay [4], 70%; in assay [5] it was 70%; in assay [6], 50%. The pest or weed control at 250 g/ha in assay [7] was determined as 80%; in assay [8], 40%.

Regarding `Cc1cc(-c2ccc(F)cc2)cc(C)c1C1C(=O)CC(CC2CCOC2)C1=O` (stereo not drawn) [Compound T158], the pest or weed control at 250 g/ha in assay [1] was 100%; in assay [2] it was 90%; in assay [3], 80%; in assay [4] it was 70%; in assay [5] it was 100%; in assay [6], 100%. Moreover, the pest or weed control at 250 g/ha in assay [7] and in assay [8] was 100% each time.

Regarding `Cc1cc(C)c(C2C(=O)CC(CC3CCN(C(=O)c4cn(C)nc4C(F)F)CC3)C2=O)c(C)c1` (stereo not drawn) [Compound T124], the pest or weed control at 250 g/ha in assay [1] was 30%; in assay [2] it was 20%; in assay [3], 20%; in assay [4], 10%; in assay [5], 30%; in assay [6] it was 30%. Besides, the pest or weed control at 250 g/ha in assay [7] and in assay [8] was 20% each time.

Consider `Cc1cc(C)c(C2C(=O)CC(CC3CCN(S(=O)(=O)C(C)C)CC3)C2=O)c(C)c1` (stereo not drawn) [Compound T93], for which the pest or weed control at 250 g/ha in assay [1] is 90%; in assay [2], 90%; in assay [3], 60%; in assay [4] it was 60%; in assay [5], 60%; in assay [6] it was 70%. Further, the results for the pest or weed control at 250 g/ha in assay [7] and in assay [8] were 60% and 70%, respectively.

Take `CC(=O)N1CCCCC1CC1CC(=O)C(c2c(C)cc(C)cc2C)C1=O` (stereo not drawn) [Compound T48]: the pest or weed control at 250 g/ha in assay [1] came out at 100%; in assay [2] it was 90%; in assay [3] it was 90%; in assay [4] it was 90%; in assay [5], 90%; in assay [6], 90%. Further, the pest or weed control at 250 g/ha came out at 100% in assay [7] and 70% in assay [8].

For the compound `CCC(=O)N1CCC(CC2CC(=O)C(c3c(C)cc(C)cc3C)C2=O)CC1` (stereo not drawn) [Compound T83], the pest or weed control at 250 g/ha in assay [1] came to 90%; in assay [2] it was 90%; in assay [3], 60%; in assay [4], 70%; in assay [5], 80%; in assay [6] it was 100%. Also, the pest or weed control at 250 g/ha in assay [7] came out at 70%; in assay [8], 90%.

With `Cc1cc(C)c(C2C(=O)CC(CC3CCOC3C)C2=O)c(C)c1` (stereo not drawn) [Compound T156], the pest or weed control at 250 g/ha in assay [1] came out at 100%; in assay [2], 100%; in assay [3], 80%; in assay [4], 70%; in assay [5], 90%; in assay [6], 90%. Moreover, the pest or weed control at 250 g/ha was 70% in assay [7] and 100% in assay [8].

Turning to `Cc1cc(C)c(C2C(=O)CC(CC3CCN(C(=O)Oc4ccccc4)CC3)C2=O)c(C)c1` (stereo not drawn) [Compound T68], the pest or weed control at 250 g/ha in assay [1] is 50%; in assay [2], 90%; in assay [3], 30%; in assay [4] it was 40%; in assay [5], 60%; in assay [6], 90%. Further, the pest or weed control at 250 g/ha in assay [7] and in assay [8] was 90% throughout.

For `COC(=O)OC1=C(c2c(C)cc(C)cc2C)C(=O)C(CC2CCOCC2)C1` (stereo not drawn) [Compound P45], the pest or weed control at 250 g/ha in assay [1], in assay [2], in assay [3], in assay [4], in assay [5] and in assay [6] was 100% throughout. Moreover, the pest or weed control at 250 g/ha in assay [7] stood at 90%; in assay [8] it was 100%.

For the compound `CC(=O)N1CCCCC1/C=C1\CC(=O)C(c2c(C)cc(C)cc2C)C1=O` (stereo not drawn) [Compound T46], the pest or weed control at 250 g/ha in assay [1] was found to be 10%; in assay [2] it was 10%; in assay [3] it was 50%; in assay [4] it was 10%; in assay [5], 60%; in assay [6] it was 50%. The figures for the pest or weed control at 250 g/ha in assay [7] and in assay [8] were 60% and 40%, respectively.

Consider `Cc1cc(C)c(C2C(=O)CC(CC3CCN(S(=O)(=O)C(F)(F)F)CC3)C2=O)c(C)c1` (stereo not drawn) [Compound T112], for which the pest or weed control at 250 g/ha in assay [1] is 30%; in assay [2], 50%; in assay [3], 40%; in assay [4], 20%; in assay [5] it was 40%; in assay [6], 30%. Further, the pest or weed control at 250 g/ha in assay [7] and in assay [8] was 30% each time.

`Cc1cc(C)c(C2=C(OC(=O)C(C)(C)C)CC(CCC3CCOCC3)C2=O)c(C)c1` (stereo not drawn) [Compound P34]: the pest or weed control at 250 g/ha in assay [1] is 100%; in assay [2] it was 100%; in assay [3], 90%; in assay [4] it was 90%; in assay [5], 80%; in assay [6], 90%. Besides, the pest or weed control at 250 g/ha in assay [7] was found to be 60%; in assay [8] it was 100%.

The values above are taken from patent US9096560B2, “5-heterocyclylalkyl-3-hydroxy-2-phenylcyclopent-2-enones as herbicides” (Syngenta Limited, priority 2008, dated 2015).
